Columns and labels:
Assay type in all cases: in vivo
Erysiphe graminis = experiment: Powdery Mildew of Wheat (ERYSGT); conditions: wheat (cultivar Monon), inoculated, sprayed at 25 ppm after 48 hours
Method: Compound Formulation: […] Final treatment volumes were obtained by adding nine volumes 0.05kOO aqueous Tween-20 or Triton X-100, depending upon the pathogen. Powdery Mildew of Wheat (Erysiphe graminis-[…]): Wheat (cultivar Monon) was grown in a soilless peat-based potting mixture (Metromix) until the seedlings were 1-2 leaf (BBCH 12). These plants were then inoculated with Erysiphe graminis by dusting spores from stock plants onto the test plants. After 48 hours the plants were sprayed to run off with the test compound at a rate of 25 ppm and then kept in the greenhouse until disease developed on the untreated control plants. The following table presents the activity of typical compounds of the present invention when evaluated in these experiments. The effectiveness of the test compounds in controlling disease was rated using the following scale: […]

Plasmopara viticola = experiment: Downy Mildew of Grape (PLASVI), 96 hour protectant; conditions: grape vines (cultivar Carignane), sprayed at 100 ppm, inoculated after 96 hours (protectant)
Method: Compound Formulation: […] Final treatment volumes were obtained by adding nine volumes 0.05kOO aqueous Tween-20 or Triton X-100, depending upon the pathogen. Downy Mildew of Grape (Plasmogara viticola-[…]) (96 Hour Protectant): Vines (cultivar Carignane) were grown from seed in a soilless peat-based potting mixture (Metromix) until the seedlings were 10-20 cm tall. These plants were then sprayed to run off with the test compound at a rate of 100 ppm. After 96 hours the test plants were inoculated by spraying with an aqueous sporangia suspension of Plasmopara viticola. The plants were then transferred to the greenhouse until disease developed on the untreated control plants. The following table presents the activity of typical compounds of the present invention when evaluated in these experiments. The effectiveness of the test compounds in controlling disease was rated using the following scale: […]

Leptosphaeria nodorum = experiment: Glume blotch of wheat (LEPTNO); conditions: wheat (cultivar Monon), sprayed at 100 ppm, inoculated after 24 hours
Method: (§1) Compound Formulation: […] Final treatment volumes were obtained by adding nine volumes 0.05kOO aqueous Tween-20 or Triton X-100, depending upon the pathogen. Glume blotch of wheat (Leptosphaeria nodorum-[…]): Wheat (cultivar Monon) was grown from seed in a soilless peat-based potting mixture (Metromix) until the seedlings were 1-2 leaf (BBCH 12). These plants were then sprayed to run off with the test compound at a rate of 100 ppm. After 24 hours the test plants were inoculated with an aqueous spore suspension of Leptosphaeria nodorum. The plants were then transferred to the greenhouse until disease developed on the untreated control plants. Brown rust (Puccinia recondita-PUCCRT): Wheat (cultivar Monon) was grown from seed in a soilless peat-based potting mixture (Metromix) until the seedlings were 1-2 leaf (BBCH 12). These plants were then sprayed to run off with the test compound at a rate of 100 ppm. After 24 hours the test plants were inoculated with an aqueous spore suspension of Puccinia recondita. The plants were then transferred to the greenhouse until disease developed on the untreated control plants. The following table presents the activity of typical compounds of the present invention when evaluated in these experiments. The effectiveness of the test compounds in controlling disease was rated using the following scale: […]

Puccinia recondita = experiment: Brown rust (PUCCRT); conditions: wheat (cultivar Monon), sprayed at 100 ppm, inoculated after 24 hours
Method: as §1

Question: Which results are given for `CNC(=O)C(=NOC)c1ccccc1COc1nc(OCC2COC(C)(C)O2)c(Cl)cc1Cl` (centres unmarked) [Compound 1]?
Answer: ERYSGT control of plant disease (Erysiphe graminis): + (+ = 25-74% control of plant disease); PLASVI control of plant disease (Plasmopara viticola): ++ (++ = 75-100 % control of plant disease); LEPTNO control of plant disease (Leptosphaeria nodorum): ++ (++ = 75-100 % control of plant disease); PUCCRT control of plant disease (Puccinia recondita): ++ (++ = 75-100 % control of plant disease)

Question: Which “ERYSGT control of plant disease” value (Erysiphe graminis) does the source give for `CNC(=O)C(=NOC)c1ccccc1COc1cccc(OCC2COC(C)(C)O2)n1` (stereo not drawn) [Compound 2, Benzeneacetamide, 2-[[[6-((2,2-dimethyl-1,3-dioxolanyl)-4-methoxy)-2-pyridinyl]oxy]methy]-α-(methoxyimino)-N-methyl-] here?
Answer: The value was “+ (+ = 25-74% control of plant disease)”.

Question: What about the “PLASVI control of plant disease” value (Plasmopara viticola) of the same compound?
Answer: The value was “++ (++ = 75-100 % control of plant disease)”.

Question: What about the “LEPTNO control of plant disease” value (Leptosphaeria nodorum) of the same compound?
Answer: The value was “++ (++ = 75-100 % control of plant disease)”.

Question: And the “PUCCRT control of plant disease” value (Puccinia recondita)?
Answer: Its value is “++ (++ = 75-100 % control of plant disease)”.

Question: For `CNC(=O)C(=NOC)c1ccccc1COc1cccc(OC(COC)OC)n1` (centres unmarked) [Compound 22], which “ERYSGT control of plant disease” value (Erysiphe graminis) is on record?
Answer: The value was “++ (++ = 75-100 % control of plant disease)”.

Question: And the “PLASVI control of plant disease” value (Plasmopara viticola)?
Answer: Its value is “+ (+ = 25-74% control of plant disease)”.

Question: And the “LEPTNO control of plant disease” value (Leptosphaeria nodorum)?
Answer: The value was “+ (+ = 25-74% control of plant disease)”.
